The subject of experiment [1] is splenocytes from HLA-A*0201 transgenic C57BL/6 mice. The experiment is described as follows: IFN-γ ELISPOT of splenocytes restimulated with peptide. The experiment is classed as cell-based, mouse. In a few lines:
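HLA-A*0201 transgenic C57BL/6 mice primed and boosted intranasally 20 days apart with 1×10^7 pfu rAd-F0 or 1×10^4 live RSV B1; splenocytes taken 10 days post-boost. Splenocytes restimulated 48 h at 37°C with 2 µg individual RSV F 9-mer peptides; spots counted, expressed per 5×10^5 splenocytes.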

In experiment [2] the test system is CD8+ T lymphocytes. The experiment is described as follows: IFN-γ intracellular staining of CD8+ splenocytes. The experiment is classed as cell-based, mouse. To be noted: splenocytes of peptide-immunized mice stimulated with 10 µg/mL peptide for five hours; flow cytometry. On the procedure: For IFN-γ intracellular staining, splenocytes from peptide- or vehicle-immunized mice were stimulated in vitro with the respective peptides (peptide 3, 13, 14, and 23) (10 µg/mL) for five hours, washed with 1× PBS, and stained with anti-CD8 antibody conjugated with fluorescein isothiocyanate (FITC) (BD Biosciences) for 30 minutes, followed by subsequent fixation and permeabilization following the instructions of eBioscience fixation and permeabilization kit. The splenocytes were further stained for intracellular IFN-γ using PE-conjugated anti-IFN-γ antibody (BD Biosciences) for another 30 minutes. After washing, the samples were analyzed using flow cytometry.
Figure 2 Epitope-specific CD4^+ and CD8^+ T-cell activation in peptide-immunized HLA-A*0201 transgenic mice. Splenocytes were isolated on day 17 from mice immunized twice subcutaneously with the peptides 3, 13, 14, 17, 23, or vehicle at day 0 and day 10. The splenocytes were labeled with CFSE and cultured in the presence or absence of 10 µg/mL of the respective peptides for 8 days. Proliferation of CD4^+ (A) or CD8^+ (B) lymphocytes in response to the different CD8 epitopes was analyzed by flow cytometry using anti-CD4 or CD8 antibodies conjugated with PE-Cy5. Results are presented as cell division index (CDI) as described in the Materials and Methods. […]

The subject of experiment [3] is RSV-B1. The experiment can be described thus: Body weight after live RSV challenge. The experiment is classed as in vivo, HLA-A*0201 transgenic C57BL/6 mice. To be noted: peptide-immunized HLA-Tg B6 mice, 10^7 pfu live RSV-B1 i.n.; weight recorded daily for 9 days. On the procedure:
To screen the immunodominance of epitopic peptide in the induction of RSV-F specific Th1/Th2 expression, HLA-A*0201 transgenic C57BL/6 mice were anesthetized with isoflurane and immunized with 1×10^7 pfu/50 µL of rAd-F0 or rAd-LacZ or 1×10^4 live RSV B1 via the intranasal (i.n.) route. Twenty days later, the mice were given booster immunization i.n. with the same dose. After 10 days of boost, mice were sacrificed and splenocytes were isolated for the cytokine ELISPOT assay. For peptide-based vaccination, transgenic mice were immunized subcutaneously (s.c.) with 50 µg of the individual synthetic peptides emulsified in 25 µL of incomplete Freund's adjuvant (IFA) (Sigma-Aldrich) and then boosted after 10 days s.c. with the same dose of the respective peptides mixed with IFA. Mice were sacrificed 7 days after the booster and splenocytes were isolated for in vitro peptide-restimulation. […] Mice body weight was monitored daily.
Figure 3 Determination of lung viral load and gain of lost body weight. […] (A) The viral load in the lungs of individual mice was determined 4 days after challenge by real-time RT-PCR to quantitate RSV N gene expression as described in the Materials and Methods. […] (B) The body weight of each mouse was recorded daily for 9 days after virus challenge. Results are expressed as % (mean) for 5 mice in each experimental group. […]

Take “YMLTNSELL [peptide 14, HLA-A*0201-restricted 9-mer synthetic peptide from F protein of RSV-B1 strain]”: the “IFN-γ ELISPOT, RSV” value in experiment [1] (splenocytes of HLA-Tg B6 mice primed and boosted i.n. with 10^4 pfu RSV-B1, restimulated with 2 µg peptide, representative of two experiments, five mice per group) is 97 cytokine-secreting cells per 5×10^5 splenocytes. Further, the “IFN-γ ELISPOT, rAd-F0” value in experiment [1] (splenocytes of HLA-Tg B6 mice primed and boosted i.n. with 10^7 pfu rAd-F0, restimulated with 2 µg peptide, representative of two experiments, five mice per group) was 200 cytokine-secreting cells per 5×10^5 splenocytes. Moreover, the “IFN-γ level in restimulated splenocytes (ELISPOT, text grading)” value in experiment [1] (splenocytes of rAd-F0- or RSV B1-primed and boosted HLA-Tg B6 mice, high = over 100 spots, moderate = over 50 spots) was “over 100 spots”. In addition, the “proportion of IFN-γ+/CD8+ T lymphocytes” value in experiment [2] is “marginally increased”. The “recovery of body weight loss (in words)” value in experiment [3] is recorded as “recovered only in the last two days”.

Source of the values: article PMC3183052, “Immunoprotectivity of HLA-A2 CTL Peptides Derived from Respiratory Syncytial Virus Fusion Protein in HLA-A2 Transgenic Mouse” (PLoS ONE, 2011).
